Reference: patent US12152051B2, “Cyclic dinucleotide analogue, pharmaceutical composition thereof, and application” (SHANGHAI DE NOVO PHARMATECH CO., LTD., priority 2018, dated 2024)

What was measured:
THP-1 dual cells = experiment: Type 1 IFN activation assay (THP-1 dual cells, QUANTI-Luc); type: cell-based; conditions: PMA-treated THP-1 dual cells, compound in digitonin PB buffer 30 min, then 24 h, expression level of IFN
Protocol: Plated THP-1 dual cells (Invivogen) as 100000 cells/well in a 96 well-plate, and then phorbol 12-myristate 13-acetate (PMA) was added and the final concentration of PMA was 30 ng/mL. After 24 h incubation, cells were washed with fresh medium for twice, and 3-folds dilution compounds were added to appropriate wells. The compounds were diluted by PB buffer (50 mM HEPES, 100 mM KCl, 3 mM MgCl2, 0.1 mM DTT, 85 mM sucrose, 1 mM ATP, 0.1 mM GTP, 0.2% o bovine serum albumin and 5 μg/ml digitonin) and the top dose was 10 μM, minimum dose was 0.0015 μM. The cells were incubated for 30 min, and then washed with fresh medium for twice again. Add fresh medium, and the cells were incubated for additional 24 h. After incubation, 10 ul supermant and 50 μL QUANTI-Luc (Invivogen) was add to a 96 well-plate, fluorescence was read with TECAN. The express level of IFN was proportional to the fluorescence intensity. Drew the curve with Graphpad Prism and analyse EC50 of the compounds.

STING = STING (Homo sapiens, UniProt Q86WV6); experiment: STING IFNβ secretion assay (THP-1 cells, AlphaLISA IFN-β kit); type: cell-based; conditions: 5 h incubation, secretion of IFN-β
Protocol: Plated 40 uL THP-1 cells (ATCC) as 16000 cells/well in a 96 well-plate (Corning, 3596). 3-folds dilution compounds were added to appropriate wells. The compounds were diluted with buffer (RPMI1640+2 mM L-glutamine+1× non-essential amino acids+1 mM sodium pyruvate+0.5% Fetal bovine serum), and the top dose of the compound was 100 μM, minimum dose was 1.23 μM. After 5 h incubation, […] supernant was added to 384-well plate (Greiner, Cat: 784075) and the secretion of IFN-β was detected with AllphaLISA IFN-β kit(PerkinElmer, Cat:AL577C). 1× buffer was prepared to dilute the receptor and donor, and then 4 μL 20 μg/mL Anti-pIFNβ AlphaLISA receptor was added to every well. After 30 mins incubation at room temperature, 4 μL 2 nM biotinylated Anti-pIFNβ antibody was added to a 384 well-plate, incubated overnight at 4° C. 10 μL 40 µg/mL Streptavidin (SA) donor which was diluted with 1×buffer was added, and then incubated at room temperature for 30 min. Fluorescence was read with TECAN. The expressed level of IFN-β was proportional to the fluorescence intensity. Drew the curve with Graphpad Prism and analysed EC50 of the compounds.

STING, sequence (Q86WV6 whole entry): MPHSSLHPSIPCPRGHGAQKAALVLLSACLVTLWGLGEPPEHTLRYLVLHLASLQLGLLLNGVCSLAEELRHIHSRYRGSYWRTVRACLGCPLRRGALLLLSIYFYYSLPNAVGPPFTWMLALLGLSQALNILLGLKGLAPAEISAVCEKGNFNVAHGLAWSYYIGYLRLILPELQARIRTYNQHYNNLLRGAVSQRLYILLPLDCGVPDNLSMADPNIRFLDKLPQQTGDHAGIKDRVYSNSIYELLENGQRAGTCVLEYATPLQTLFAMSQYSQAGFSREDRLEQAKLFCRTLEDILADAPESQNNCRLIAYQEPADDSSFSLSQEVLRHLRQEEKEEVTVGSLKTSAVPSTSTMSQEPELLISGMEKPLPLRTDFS

EC50 (THP-1 dual cells)	EC50 (STING)	EC50 (THP-1 dual cells; Homo sapiens, THP1-Dual)	SMILES
188 µM	–	–	Nc1nc2c(ncn2[C@@H]2O[C@@H]3COP(=O)(S)O[C@H]4[C@@H](O)[C@H](n5ccc6nccn6c5=O)O[C@@H]4COP(=O)(S)O[C@@H]2[C@@H]3O)c(=O)[nH]1 (some centres unmarked) [Compound 13-p1]
–	36.2 µM	0.625 µM	Nc1ncnc2c1ncn2C1OC2COP(=O)(S)OC3C(O)C(COP(=O)(S)OC2C1F)OC3n1c(=O)sc2c(N)ncnc21 (centres unmarked) [Compound 4-p2]
> 10 µM	–	–	Nc1ncnc2c1ncn2[C@@H]1O[C@@H]2COP(=O)(S)O[C@@H]3[C@H](O)[C@@H](COP(=O)(S)O[C@H]2[C@H]1O)O[C@H]3n1c(=O)[nH]c2c(N)ncnc21 (some centres unmarked) [Compound 1-p1]
60.8 µM	–	–	Nc1nc2c(ncn2[C@@H]2O[C@@H]3COP(=O)(S)O[C@H]4[C@@H](O)[C@H](n5cnc6ncccc6c5=O)O[C@@H]4COP(=O)(S)O[C@@H]2[C@@H]3O)c(=O)[nH]1 (some centres unmarked) [Compound 11-p1]
2.94 µM	–	–	Nc1ncnc2c1ncn2[C@@H]1O[C@@H]2COP(=O)(S)O[C@@H]3C(O)[C@@H](COP(O)(=S)O[C@H]2[C@H]1O)O[C@H]3n1cnc2c(N)ncnc21 (some centres unmarked) [Ref. 1, MLRR-CDA, reference compound]
45.8 µM	–	–	Nc1ncnc2c1ncn2[C@@H]1O[C@@H]2COP(=O)(S)O[C@@H]3[C@H](O)[C@@H](COP(=O)(S)O[C@H]2[C@H]1O)O[C@H]3n1c(=O)sc2c(N)ncnc21 (some centres unmarked) [Compound 2-p1]
2.27 µM	–	–	CO[C@H]1[C@H]2OP(=O)(S)OC[C@H]3O[C@@H](n4cnc5c(N)ncnc54)[C@H](F)[C@@H]3OP(=O)(S)OC[C@H]1O[C@H]2n1c(=O)sc2c(N)ncnc21 (some centres unmarked) [Compound 6-p1]
0.417 µM	94.4 µM	–	Nc1ncnc2c1ncn2C1OC2COP(=O)(S)OC3C(O)C(COP(=O)(S)OC2C1F)OC3n1c(=O)sc2c(N)ncnc21 (centres unmarked) [Compound 4-p3]
70.7 µM	–	–	Nc1nc2c(ncn2[C@@H]2O[C@@H]3COP(=O)(S)O[C@H]4[C@@H](O)[C@H](n5cnc6ccccc6c5=O)O[C@@H]4COP(=O)(S)O[C@@H]2[C@@H]3O)c(=O)[nH]1 (some centres unmarked) [Compound 10-p1]
